Source: patent US4693992A, “Bacitracin-metal-polyether antibiotic complexes” (International Minerals & Chemical Corp., priority 1985, dated 1987)

How the values were obtained:
[1] = tested on: Eimeria tenella; assay: Anticoccidial activity in chickens inoculated with Eimeria tenella oocysts (Example 11); assay type: in vivo; settings: for Incidence of Bloody Droppings / Morbidity: 4th-6th day; for Mortality: 4th-7th day
Procedure: (§1) This example describes experimental testing of complexes of this invention for anticoccidial activity. Anticoccidial activities of test compounds were determined by administering the compounds (in feed) to chickens inoculated with active oocysts of Eimeria tenella. The test compounds, which are listed in Table 1 below, included four bacitracin-metal-polyether antibiotic complexes prepared according to the procedures described above. In addition, sodium lysocellin, regular bacitracin, sodium monensin, sodium lasolocid, and unmedicated inoculated and noninoculated controls were included for comparative purposes.
(§2) The test animals were Hubbard White Mountain male chicken (broiler strain) that were 5 days old at the beginning of the test. Each experimental compound was administered in a chick starter diet (Table 2) at a level of 80 g/ton and 120 g/ton. At 7 days of age, chicks were individually weighed, banded, and started on their respective treatments. Each treatment was replicated three times with five birds per replicate for a total of 15 birds per group. The test period was 10 days.
Seventy-two hours after the initiation of medication, birds were reweighed and orally inoculated with approximately 100,000 Eimeria tenella oocysts suspended in a 1 cc dose of saline. The following criteria were then evaluated over the next seven days: […]
a. morbidity (4th-6th day) b. mortality (4th-7th day) c. incidence of bloody droppings (4th-6th day)

[2] = tested on: Eimeria tenella; assay: Anticoccidial activity in chickens inoculated with Eimeria tenella (Example 12); assay type: in vivo, chicken; settings: for Cecal Bleeding / Gain/Bird Days 0-3 / Gain/Bird Days 4-10: regrouped part of Table 2
Procedure: as §1, §2
Seventy-two hours after the initiation of medication, birds were reweighed and orally inoculated with approximately 100,000 Eimeria tenella oocysts suspended in a 1 cc dose of saline. The following criteria were then evaluated over the next seven days:
A satisfactory challenge was obtained with Eimeria tenella.

[3] = Weight gain and feed utilization efficiency in chicks, 11 days (Example 13); assay type: in vivo, chicken; design: key to Average Weight: average weight in grams; settings: .00275% in rye basal diet
Procedure: (§3) This example describes experimetnal testing of complexes of the present invention as feed additives for improving weight gain or feed utilization efficiency in birds. Test animals were male meat-type chickens (Hubbard strain). Fluorescent room lights were on a 16 hours light/8 hours dark schedule. The chicks were allotted to the pens on the basis of weight classes, and chicks in the even numbered pens were wing banded. Group weights were obtained at the start and individual weights at the termination of the experiment. Chicks weighing between 55 and 65 grams were selected for the test. The test compounds were blended with a basal feed ration (shown in Table 2) at the indicated concentration. Birds fed […] and feed supplemented with zinc bacitracin (Baciferm® 50, International Minerals and Chemical Corp.) were used as controls. The test was continued for 11 days, after which individual weights, pen weight and feed consumption were recorded and analyzed.

[4] = Weight gain and feed utilization in chicks, 12 days (Example 14); assay type: in vivo, chicken; settings: .0066% in feed
Procedure: as §3
All of the bacitracin-metal-polyether antibiotic complexes tested produced statistically significant increases in gains compared to the unmedicated basal ration.
The test involving test compounds 1 and 3-14 consisted of 5 replicates of 7 chicks and those involving test compound 2 consisted of 6 replicates of 7 chicks. The tests were continued for 12 days, after which individual weight gains and feed conusumption were recorded and analyzed.

[5] = 80 g/ton in feed, birds affected/birds in group
[6] = 80 g/ton in feed, birds dead/birds in group
[7] = 80 g/ton in feed, feed per gain
[8] = 120 g/ton in feed, birds affected/birds in group
[9] = 120 g/ton in feed, birds dead/birds in group
[10] = 120 g/ton in feed, feed per gain

CC[C@@H](C(=O)[C@@H](C)[C@@H](O)[C@H](C)CCc1ccc(C)c(O)c1C(=O)O)[C@H]1O[C@](CC)([C@H]2CC[C@](O)(CC)[C@H](C)O2)C[C@@H]1C [Lasalocid, sodium lasalocid, reference compound]
anticoccidial activity (in words) ([1]; 80 and 120 g/ton, mild E. tenella challenge): excellent anticoccidial activity | Incidence of Bloody Droppings ([1]; 80 g/ton in feed): None | Morbidity [1, 5]: 0/15 | Mortality [1, 6]: 0/15 | Gain, Grams Day 0-3 ([1]; 80 g/ton in feed): 59.7 Grams | Gain, Grams Day 4-10 ([1]; 80 g/ton in feed): 232.4 Grams | F/G Day 0-3 [1, 7]: 1.68 | F/G Day 4-10 [1, 7]: 1.58 | Incidence of Bloody Droppings ([1]; 120 g/ton in feed): None | Morbidity [1, 8]: 1/15 | Mortality [1, 9]: 0/15 | Gain, Grams Day 0-3 ([1]; 120 g/ton in feed): 55.7 Grams | Gain, Grams Day 4-10 ([1]; 120 g/ton in feed): 230.1 Grams | F/G Day 0-3 [1, 10]: 1.75 | F/G Day 4-10 [1, 10]: 1.56 | Cecal Bleeding ([2]; 14 g/ton Lasalocid (Approx.)): Severe | Gain/Bird Days 0-3 ([2]; 14 g/ton Lasalocid (Approx.)): 58.7 | Gain/Bird Days 4-10 ([2]; 14 g/ton Lasalocid (Approx.)): 148.5 | Cecal bleeding associated with E. tenella infections ([2]; 24 (.30 of 80) gram per ton): severe | Incidence of Bloody Droppings ([2]; 24 g/ton in feed): Severe | Morbidity ([2]; 24 g/ton in feed): 9/15 | Mortality ([2]; 24 g/ton in feed): 0/15 | F/G Day 0-3 ([2]; 24 g/ton in feed): 1.78 | Gain/Bird Grams Day 0-3 ([2]; 24 g/ton in feed): 58.7 Grams | F/G Day 4-10 ([2]; 24 g/ton in feed): 2.09 | Gain/Bird Grams Day 4-10 ([2]; 24 g/ton in feed): 148.5 Grams | Cecal Bleeding ([2]; 36 g/ton Lasalocid (Approx.)): Moderate | Gain/Bird Days 0-3 ([2]; 36 g/ton Lasalocid (Approx.)): 61.5 | Gain/Bird Days 4-10 ([2]; 36 g/ton Lasalocid (Approx.)): 176.5 | Incidence of Bloody Droppings ([2]; 36 g/ton in feed): Moderate | Morbidity ([2]; 36 g/ton in feed): 5/14 | Mortality ([2]; 36 g/ton in feed): 1/14 | F/G Day 0-3 ([2]; 36 g/ton in feed): 1.74 | Gain/Bird Grams Day 0-3 ([2]; 36 g/ton in feed): 61.5 Grams | F/G Day 4-10 ([2]; 36 g/ton in feed): 1.86 | Gain/Bird Grams Day 4-10 ([2]; 36 g/ton in feed): 176.5 Grams | Incidence of Bloody Droppings ([2]; 80 g/ton in feed): None | Morbidity ([2]; 80 g/ton in feed): 1/15 | Mortality ([2]; 80 g/ton in feed): 0/15 | F/G Day 0-3 ([2]; 80 g/ton in feed): 1.71 | Gain/Bird Grams Day 0-3 ([2]; 80 g/ton in feed): 58.0 Grams | F/G Day 4-10 ([2]; 80 g/ton in feed): 1.60 | Gain/Bird Grams Day 4-10 ([2]; 80 g/ton in feed): 219.4 Grams | Incidence of Bloody Droppings ([2]; 120 g/ton in feed): None | Morbidity ([2]; 120 g/ton in feed): 0/15 | Mortality ([2]; 120 g/ton in feed): 0/15 | F/G Day 0-3 ([2]; 120 g/ton in feed): 1.76 | Gain/Bird Grams Day 0-3 ([2]; 120 g/ton in feed): 52.1 Grams | F/G Day 4-10 ([2]; 120 g/ton in feed): 1.52 | Gain/Bird Grams Day 4-10 ([2]; 120 g/ton in feed): 225.2 Grams

CC[C@@]1([C@@H]2O[C@@H]([C@H]3O[C@@](O)(CO)[C@H](C)C[C@@H]3C)C[C@@H]2C)CC[C@H]([C@]2(C)CC[C@]3(C[C@H](O)[C@@H](C)[C@@H]([C@@H](C)[C@@H](OC)[C@H](C)C(=O)O)O3)O2)O1 [Monensin, sodium monensin, reference compound]
protection against cecal bleeding ([1]; level in feed not given): fair | tolerance by the birds ([1]; level in feed not given): not tolerated well | Incidence of Bloody Droppings ([1]; level in feed not given): Slight | Morbidity ([1]; level in feed not given): 5/15 | Mortality ([1]; level in feed not given): 0/15 | F/G Day 0-3 ([1]; level in feed not given): 1.81 | Gain, Grams Day 0-3 ([1]; level in feed not given): 53.2 Grams | F/G Day 4-10 ([1]; level in feed not given): 1.64 | Gain, Grams Day 4-10 ([1]; level in feed not given): 202.5 Grams

Bacitracin-Copper-Lysocellin Complex [Example 2]
Incidence of Bloody Droppings ([1]; 80 g/ton in feed): Severe | Morbidity [1, 5]: 6/15 | Mortality [1, 6]: 1/15 | Gain, Grams Day 0-3 ([1]; 80 g/ton in feed): 59.0 Grams | Gain, Grams Day 4-10 ([1]; 80 g/ton in feed): 200.2 Grams | F/G Day 0-3 [1, 7]: 1.67 | F/G Day 4-10 [1, 7]: 1.74 | Morbidity [1, 8]: 6/15 | Mortality [1, 9]: 0/15 | Gain, Grams Day 0-3 ([1]; 120 g/ton in feed): 64.3 Grams | Gain, Grams Day 4-10 ([1]; 120 g/ton in feed): 203.5 Grams | F/G Day 0-3 [1, 10]: 1.69 | F/G Day 4-10 [1, 10]: 1.74 | Cecal Bleeding ([2]; 14 g/ton Lasalocid (Approx.)): Severe | Gain/Bird Days 0-3 ([2]; 14 g/ton Lasalocid (Approx.)): 60.5 | Gain/Bird Days 4-10 ([2]; 14 g/ton Lasalocid (Approx.)): 171.5 | Cecal Bleeding ([2]; 36 g/ton Lasalocid (Approx.)): Slight-Moderate | Gain/Bird Days 0-3 ([2]; 36 g/ton Lasalocid (Approx.)): 57.0 | Gain/Bird Days 4-10 ([2]; 36 g/ton Lasalocid (Approx.)): 198.7 | Incidence of Bloody Droppings ([2]; 80 g/ton in feed): Severe | Morbidity ([2]; 80 g/ton in feed): 5/15 | Mortality ([2]; 80 g/ton in feed): 0/15 | F/G Day 0-3 ([2]; 80 g/ton in feed): 1.68 | Gain/Bird Grams Day 0-3 ([2]; 80 g/ton in feed): 60.5 Grams | F/G Day 4-10 ([2]; 80 g/ton in feed): 1.92 | Gain/Bird Grams Day 4-10 ([2]; 80 g/ton in feed): 171.5 Grams | Cecal bleeding associated with E. tenella infections ([2]; 80 gram per ton): severe | weight gains compared with those of test compound 5 and lasalocid ([2]; 80 gram per ton (lasalocid 24 gram per ton)): appreciably higher | Morbidity ([2]; 120 g/ton in feed): 4/15 | Mortality ([2]; 120 g/ton in feed): 0/15 | F/G Day 0-3 ([2]; 120 g/ton in feed): 1.75 | Gain/Bird Grams Day 0-3 ([2]; 120 g/ton in feed): 57.0 Grams | F/G Day 4-10 ([2]; 120 g/ton in feed): 1.74 | Gain/Bird Grams Day 4-10 ([2]; 120 g/ton in feed): 198.7 Grams | anticoccidial activity (in words) ([2]; 120 grams per ton): good anticoccidial activity

Bacitracin-Zn-Lasalocid Complex
Average Gain ([3]; 11 days): 225 g | Gain/Feed Ratio ([3]; 11 days): 65.6 | Average Weight ([3]; Table 4): 285.6 | Gain/Feed ([3]; Table 4): 65.6 | Average Gain Index ([3]; unmedicated = 100): 109.4 | Gain/Feed Ratio Index ([3]; unmedicated = 100): 103.0 | Gain/Feed Data ([4]; 12 days): .609 | Gains/gram Data ([4]; 12 days): 213.5 gram | Gain/Feed Index Relative to #1 ([4]; #1 = unmedicated): 108.2 | Gains Index Relative to #1 ([4]; #1 = unmedicated): 115.3 | Gain/Feed Index Relative to #2 ([4]; #2 = zinc bacitracin): 102.2 | Gains Index Relative to #2 ([4]; #2 = zinc bacitracin): 101.9
